Here are results for 14 molecules from US8168651B2, “Protein kinase modulators” (Cylene Pharmaceuticals, Inc., priority 2008, dated 2012).

Experiment [1] deals with recombinant human CK2 (Homo sapiens (Human), UniProt P68400). Put plainly: CK2 assay (cell-free, 33P-ATP filter plate). In kind it is biochemical. To be noted: 500 nM compound, cell-free assay; read-out: CK2: % inh 500 nM.
The subject of experiment [2] is K-562. The experiment can be described thus: Cell proliferation modulatory activity, K-562. The class given is cell-based. To be noted: Homo sapiens, K562; K-562 cells.
Experiment [3] deals with MV-4-11. Put plainly: Cell proliferation modulatory activity, MV-4-11. The class given is cell-based. The conditions noted are these: Homo sapiens, MV4-11; MV-4-11 cells.
Experiment [4] concerns the target recombinant human PIM1 (Homo sapiens (Human), UniProt P11309). The experiment can be described thus: PIM-1 kinase activity in cell-free in vitro assay. To be noted: cell-free assay; for inhibition at 0.5 µM: 500 nM compound, read-out: PIM-1: % inh 500 nM. In kind it is biochemical.
Experiment [5] relates to HCT-116 human colorectal carcinoma cells. The experiment can be described thus: Cell-proliferation assay using Alamar Blue dye.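 Note: cells exposed to compound for about 4 days, then Alamar Blue added and dye fluorescence read after about 4 h, compared with medium-only control wells.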 In kind it is cell-based. To be noted: Homo sapiens, HCT-116, second HCT-116 column (c8); read-out: HCT-116 (uM) cell proliferation modulatory activity. A general note: Resazurin is reduced to fluorescent resorufin, in cell work by metabolically active cells.

Chain of recombinant human CK2 (P68400 whole entry): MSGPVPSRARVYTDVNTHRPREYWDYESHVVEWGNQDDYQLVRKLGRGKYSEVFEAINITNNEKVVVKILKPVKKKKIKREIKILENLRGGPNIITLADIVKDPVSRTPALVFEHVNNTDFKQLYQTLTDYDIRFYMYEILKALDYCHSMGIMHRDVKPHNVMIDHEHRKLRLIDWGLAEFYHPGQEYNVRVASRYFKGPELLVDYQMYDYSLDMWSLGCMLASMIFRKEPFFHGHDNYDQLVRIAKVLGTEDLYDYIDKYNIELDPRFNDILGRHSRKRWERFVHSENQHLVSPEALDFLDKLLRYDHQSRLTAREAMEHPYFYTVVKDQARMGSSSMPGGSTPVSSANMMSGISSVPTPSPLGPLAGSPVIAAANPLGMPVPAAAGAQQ
Chain of recombinant human CK2 (P67870 whole entry partner): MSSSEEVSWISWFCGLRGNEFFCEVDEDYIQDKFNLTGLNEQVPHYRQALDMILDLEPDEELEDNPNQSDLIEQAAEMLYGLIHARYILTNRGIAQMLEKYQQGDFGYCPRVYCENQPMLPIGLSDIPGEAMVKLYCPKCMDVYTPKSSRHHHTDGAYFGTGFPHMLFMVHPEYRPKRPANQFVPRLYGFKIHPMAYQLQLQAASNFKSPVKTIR
Chain of recombinant human PIM1 (P11309 whole entry): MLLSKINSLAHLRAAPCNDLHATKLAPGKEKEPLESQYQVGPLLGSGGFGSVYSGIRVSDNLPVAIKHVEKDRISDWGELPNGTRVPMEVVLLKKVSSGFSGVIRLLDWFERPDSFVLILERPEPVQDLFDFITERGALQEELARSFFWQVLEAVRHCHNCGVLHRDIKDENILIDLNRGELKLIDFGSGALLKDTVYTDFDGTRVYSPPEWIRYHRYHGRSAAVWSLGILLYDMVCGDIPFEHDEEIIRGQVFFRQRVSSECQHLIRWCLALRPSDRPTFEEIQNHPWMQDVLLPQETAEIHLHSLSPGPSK

On to `CN(c1ccccc1)c1nc2cc(C(=O)O)ccc2c2ccncc12`, for which the inhibition at 0.5 µM worked out at 15.3% in experiment [1] and 56.8% in experiment [4]. For the same molecule, the IC50 in experiment [2] is over 10 µM; in experiment [3], over 10 µM; in experiment [4], 0.602 µM; in experiment [5], over 10 µM.
Consider `O=C(O)c1ccc2c(c1)nc(Nc1cccc(F)c1)c1cnccc12`, for which the inhibition at 0.5 µM worked out at 35.8% in experiment [1] and 55.4% in experiment [4]. Further, the IC50 in experiment [2] is over 10 µM; in experiment [3] it was over 10 µM; in experiment [4], 0.746 µM; in experiment [5], over 10 µM.
For `C#Cc1cccc(Nc2nc3cc(C(=O)O)ccc3c3ccncc23)c1`, the results for the inhibition at 0.5 µM in experiment [1] and in experiment [4] were 72.4% and 46.6%, respectively. Moreover, the IC50 in experiment [2], in experiment [3] and in experiment [5] was over 10 µM each time.
`O=C(O)c1ccc2c(c1)nc(Nc1cccc(Cl)c1)c1nccnc12`: the inhibition at 0.5 µM in experiment [1] amounted to 69.3%; in experiment [4] it was 9.61%. Also, the IC50 is over 10 µM in experiment [2], 5.81 µM in experiment [3] and over 10 µM in experiment [5].
In the case of `O=C(O)c1ccc2c(c1)nc(Nc1ccc(F)c(Cl)c1)c1nccnc12`, the inhibition at 0.5 µM in experiment [1] is 36.5%; in experiment [4] it was -0.602%. Moreover, the IC50 in experiment [2], in experiment [3] and in experiment [5] was over 10 µM each time.
In the case of `C#Cc1cccc(Nc2nc3cc(C(=O)O)ccc3c3nccnc23)c1`, the inhibition at 0.5 µM in experiment [1] was 85.3%; in experiment [4], -4.59%. Further, the IC50 in experiment [2], in experiment [3] and in experiment [5] was over 10 µM each time.
`COC(=O)c1ccc2c(c1)nc(NCCn1cccc1)c1ccncc12`: the inhibition at 0.5 µM in experiment [1] was 9.01%; in experiment [4] it was -34.6%. Moreover, the IC50 in experiment [2] is over 10 µM; in experiment [3], 2.83 µM; in experiment [5], 9.97 µM.
Regarding `O=C(O)c1ccc2c(c1)nc(NCCn1cccc1)c1ccncc12`, the inhibition at 0.5 µM came out at 99.6% in experiment [1] and 74.5% in experiment [4]. The IC50 in experiment [2] was over 10 µM; in experiment [3], over 10 µM; in experiment [4], 0.094 µM; in experiment [5] it was over 10 µM.
`COC(=O)c1ccc2c(c1)nc(N(C)CCc1ccccn1)c1ccncc12`: the inhibition at 0.5 µM is -3.68% in experiment [1] and -5.84% in experiment [4]. For the same molecule, the IC50 in experiment [2], in experiment [3] and in experiment [5] was over 10 µM in each case.
Take `CN(CCc1ccccn1)c1nc2cc(C(=O)O)ccc2c2cnccc12`: the figures for the inhibition at 0.5 µM in experiment [1] and in experiment [4] were 90.8% and 3.73%, respectively. For the same molecule, the figures for the IC50 in experiment [2], in experiment [3] and in experiment [5] were 7.2 µM, 1.54 µM and 0.902 µM, respectively.
In the same order, the values of `COC(=O)c1ccc2c(c1)nc(NCCCOC(C)C)c1ccncc12` are 90.9%, 24.2%, over 10 µM, 6.42 µM and over 10 µM.
In the case of `CC(C)OCCCNc1nc2cc(C(=O)O)ccc2c2cnccc12`, the inhibition at 0.5 µM in experiment [1] is 98.5%; in experiment [4] it was 60.8%. Besides, the IC50 is over 10 µM in experiment [2], 7.01 µM in experiment [3], 0.402 µM in experiment [4] and over 10 µM in experiment [5].
Take `COC(=O)c1ccc2c(c1)nc(NCCOC(C)C)c1ccncc12`: the inhibition at 0.5 µM in experiment [1] is 15.6%; in experiment [4], 39.1%. In addition, the IC50 is over 10 µM in experiment [2], 2.94 µM in experiment [3] and over 10 µM in experiment [5].
As for `CC(C)OCCNc1nc2cc(C(=O)O)ccc2c2cnccc12`, the inhibition at 0.5 µM in experiment [1] amounted to 93%; in experiment [4], 48.2%. Also, the results for the IC50 in experiment [2], in experiment [3] and in experiment [5] were over 10 µM, 9.46 µM and over 10 µM, respectively.
